From patent publication US20260166021A1, “POLYMORPHIC FORMS OF A SOLUBLE EPOXIDE HYDROLASE INHIBITOR AND FORMULATIONS THEREOF” (EicOsis, LLC, priority 2022, published 2026)
≈ marks a conversion by molar mass, not a printed value.

How the values were obtained:
Assay type in all cases: physicochemical
[1] = Competitive slurry experiments (solvent-mediated polymorph transformation, XRD); conditions: room temperature, water, MTBE or n-heptane, 1 and 7 days, listed as Pattern C
Protocol: Polymorph stability and interconversions were analyzed with competitive slurry experiments. The competitive slurry (solvent-mediated transformation) experiments were performed on Forms A, B, D, E, F, G, and I generated through scaled-up crystallization (summarized in TABLE 11). […] The suspensions were aliquoted at one day and seven days and filtered to isolate the solids. Remaining solid was analyzed by XRD without drying.
In FIG. 66, the second spectrum from the top corresponds to Form E. These XRD data confirmed that Patterns C, K, and D were afforded in these solvents.
In order to further confirm the rank of stability order of the selected forms and extend the temperature range of stability relationship up to 70° C. covering potential API process conditions, binary form slurries were conducted with starting mixtures of (1) Forms A and D, and (2) Forms D and E. The resultant polymorphs were characterized with XRD after 1 and 7 days, the results of which analyses are shown in FIGURE S 67-68 and summarized in TABLE 13. Pattern D stood out from both binary mixture slurries of A & D and of D & E after seven-day stirring at the elevated temperature.
Additional single form slurry experiments were conducted on Forms A, D, and E in either water or heptane at room temperature. […] In agreement with prior competitive slurry experiments, Form D was stable at room temperature in n-heptane. Pattern E was obtained from slurries starting with Forms A and E in n-heptane. As expected, Form C was formed from the Pattern E slurry in water.

[2] = Thermal stress studies at 60° C. (XRD, HPLC); conditions: incubated at 60° C., in less than 1 day
Protocol: Briefly, 20 mg of solid Form A, B, C, D, E, F, G, and I were weighed into 7 mL glass vials. The vials were covered with tissue and stored in ovens set to 60° C. and ambient pressure. Following 1 and 7 days incubation, solid was collected for XRD analysis.
As shown in these figures, Forms B and C converted to Forms D and A, respectively, while the other forms remained unchanged.
The starting materials, intermediates (1 day of thermal stress), and products (7 days of thermal stress) were analyzed by H PLC. Representative chromatograms from the Form D thermal stress analyses are shown in FIGS. 81-83 (starting material, 1 day, and 7 day samples, respectively).

[3] = PEG-stability analyses: Form C/Form D mixture slurried in PEG300 with water; conditions: 1:1 mixture of Forms C and D slurried in PEG300; XRD
Protocol: Of particular interest was whether Form D would convert to a hydrate (e.g., Form C) in the presence of water. To investigate the critical water concentration for phase interconversion between Pattern C and D, a series experiments were designed (as summarized in TABLE 16). A 1:1 mixture of Forms C and D was prepared and slurried in PEG 300 with different levels of water concentrations. Phase transformations were monitored with XRD, and are summarized in FIG. 85, which (from top to bottom) provides XRD of Form C, Form D, the mixture following incubation in PEG300 containing 75% water, the mixture following incubation in PEG300 containing 50% water, the mixture following incubation in PEG300 containing 25% water, the mixture following incubation in PEG300 containing 10% water, and the mixture following incubation in PEG300 containing 5% water. […] Form D is the stable form in PEG300 with less than 50% water.

[4] = Solubility of Form C in binary solvent systems (TABLE 22)
[5] = Equilibrium-solubility screening in solvents and excipients
Protocol: For these analyses, Form D or Form C was mixed with 0.5 or 1.0 mL of solvents and equilibrated for approximately 24 hours. The mixture was filtered through 0.45 μm centrifuge filters.
As expected, the compound was not easily ionized at physiologically relevant pH. […] In addition, these excipients included surfactants, co-solvents, and lipids which are amenable for use in self-emulsifying drug delivery systems (SEDDS). The XRD pattern of the starting material was maintained for each sample after equilibrium.

[6] = Supersaturation monitoring in PEG 300; conditions: PEG 300 (0.5 mL)
[7] = Kinetic solubility in sodium lauryl sulfate (SLS) 60 mM, with XRD of remaining solid; conditions: room temperature
Protocol: The mixture was stirred at room temperature with astir bar. The samples (n=3) were collected at each predetermined time points (5, 10, 15, 20, 30, 60, 90, 120, and 180 minutes) and centrifuged. The filtrate was analyzed by H PLC to determine solubility, and the remaining solid was analyzed by XRD as appropriate. Three replicates were performed for each condition.
The advantages of achieving higher degree of supersaturation from milled material (by providing larger surface area) and amorphous material (by providing higher solubility) were offset by phase transformation from Form D to Pattern C (i.e. hydrate form).
In each figure, the top spectrum corresponds to pure Form C, the second figure from the top of the figure corresponds to pure Form D, the third spectrum from the top of the figure corresponds to solid collected following 5 minutes of solubilization, the fourth spectrum from the top corresponds to solid collected following 60 minutes of solubilization, the fifth spectrum from the top corresponds to solid collected following 90 minutes of solubilization, and the bottom spectrum corresponds to solid collected following 180 minutes of solubilization. As indicated by these XRD data, the milled and amorphous materials were converted into Pattern C within 5 min after exposure to the dissolution medium. […]

[8] = Bulk and tapped density (tap density tester)
Description: Before milling, Form D was screened through a 30-micron mesh sieve. Then, Form D micronized using a 2-inch jet mill 70 psig feed pressure, 40 psig grinding pressure, and a 4.3 g/min powder feed rate. The micronization process provided a 69% yield and 95.6% crystallinity relative to the unmilled material.

For CC[C@H](C)C(=O)N1CCC(NC(=O)Nc2ccc(OC(F)(F)F)c(F)c2)CC1 [Form C, (S)-1-(3-fluoro-4-(trifluoromethoxy)phenyl)-3-(1-(2-methylbutanoyl)piperidin-4-yl)urea], which “polymorph stability in competitive slurry” value [1] is on record?
Its value is “unstable hydrate”.

What about the “conversion to Form A” value [2] of the same compound?
The value was 100%.

What about the “stable form in PEG300 with 50% or higher water content” value [3] of the same compound?
Its value is “more stable”.

What about the solubility ([4]; IPA/n-heptane, ratio of n-heptane to primary 21.3, organic solvent or mixture) of the same compound?
Its solubility is 5000 µg/mL.

And the solubility ([4]; ethanol/n-heptane, organic solvent or mixture, EtOH, ratio of n-heptane to primary 7.7 (1st test point))?
Its solubility is 38000 µg/mL.

And the solubility ([4]; ethanol/n-heptane, organic solvent or mixture, EtOH, ratio of n-heptane to primary 13.2 (2nd test point))?
The solubility was 10000 µg/mL.

And the solubility ([4]; ethyl acetate/n-heptane, organic solvent or mixture, EtoAC, ratio of n-heptane to primary 1.4 (1st test point))?
The solubility was 7000 µg/mL.

And the solubility ([4]; ethyl acetate/n-heptane, organic solvent or mixture, EtoAC, ratio of n-heptane to primary 2.0 (2nd test point))?
The solubility was 4000 µg/mL.

And the solubility ([4]; ethyl acetate/n-heptane, organic solvent or mixture, EtoAC, ratio of n-heptane to primary 2.2 (3rd test point))?
The solubility was 3000 µg/mL.

And the solubility ([4]; organic solvent or mixture, IPA, ratio of n-heptane to primary 13.3 (1st test point))?
The solubility was 30000 µg/mL.

What about the solubility ([4]; organic solvent or mixture, IPA, ratio of n-heptane to primary 13.9 (2nd test point)) of the same compound?
The solubility was 10000 µg/mL.

And the solubility ([4]; organic solvent or mixture, MEK, ratio of n-heptane to primary 2.0 (1st test point))?
The solubility was 11000 µg/mL.

What about the solubility ([4]; organic solvent or mixture, MEK, ratio of n-heptane to primary 3.0 (2nd test point)) of the same compound?
The solubility was 5000 µg/mL.

And the solubility ([4]; organic solvent or mixture, MEK, ratio of n-heptane to primary 3.4 (3rd test point))?
Its solubility is 4000 µg/mL.

And the “XRD Pattern At Equilibrium” value ([5]; PEG 300, 50%)?
The value was “Form C”.

And the solubility thermodynamic at 24 h ([5]; PEG 300, 50%, aqueous with cosolvent or surfactant or cyclodextrin, thermodynamic from solid)?
The solubility thermodynamic at 24 h was 800 µg/mL (≈ 1970 µM).

And the “Equilibrium Solubility” value ([5]; PEG 300, 100%)?
The value was 16700 µg/mL.

And the “XRD Pattern At Equilibrium” value ([5]; PEG 300, 100%)?
The value was “Form D”.

What about the “Equilibrium Solubility” value ([5]; PEG 400, 50%) of the same compound?
The value was 400 µg/mL.

And the “XRD Pattern At Equilibrium” value ([5]; PEG 400, 50%)?
The value was “Form C”.

What about the “Equilibrium Solubility” value ([5]; PEG 400, 100%) of the same compound?
The value was 17900 µg/mL.

And the “XRD Pattern At Equilibrium” value ([5]; PEG 400, 100%)?
Its value is “Form D”.

And the “Step → Observation” value ([6]; 100 mg/mL, 1. RT stirring for 1 hr, listed as Pattern C)?
Its value is 1. RT stirring for 1 hr →suspension.

What about the “Step → Observation” value ([6]; 100 mg/mL, 2. 40 C. heating for 0.5 hr, listed as Pattern C) of the same compound?
The value was 2. 40 °C heating for 0.5 hr →clear solution.

And the “Step → Observation” value ([6]; 100 mg/mL, 3. RT storage for ~8 days, listed as Pattern C)?
Its value is 3. RT storage for ~8 days →clear solution.

And the “Step → Observation” value ([6]; 100 mg/mL, 4. RT storage for ~9 days, listed as Pattern C)?
Its value is 4. RT storage for ~9 days →precipitation.

And the “Step → Observation” value ([6]; 200 mg/mL, 1. RT stirring for 1 hr)?
Its value is 1. RT stirring for 1 hr →suspension.

What about the “Step → Observation” value ([6]; 200 mg/mL, 2. 40 C. heating for 48 hr, listed as Pattern C) of the same compound?
Its value is 2. 40 °C heating for 48 hr →suspension.

What about the “Step → Observation” value ([6]; 200 mg/mL, 3. 55 C. heating for <16 hr) of the same compound?
Its value is 3. 55 C. heating for <16 hr →clear solution.

And the “Step → Observation” value ([6]; 200 mg/mL, 4. RT storage for <3.5 days)?
The value was 4. RT storage for <3.5 days →precipitation.

What about the “Step → Observation” value ([6]; 200 mg/mL, 5. 55 C. reheating for overnight) of the same compound?
The value was 5. 55 C. reheating for overnight →clear solution.

And the “Step → Observation” value ([6]; 200 mg/mL, 6. RT storage for overnight)?
The value was 6. RT storage for overnight →precipitation.

With CC[C@H](C)C(=O)N1CCC(NC(=O)Nc2ccc(OC(F)(F)F)c(F)c2)CC1 [unmilled Form D, (S)-1-(3-fluoro-4-(trifluoromethoxy)phenyl)-3-(1-(2-methylbutanoyl)piperidin-4-yl)urea] as the compound, how does the “time to full transition to the hydrate form (Form C)” value [7] read?
The value was 60 min.

And the bulk density [8]?
The bulk density was 0.54 g/mL.

And the tapped density [8]?
Its tapped density is 0.61 g/mL.
